Measured values taken from US20250353891A1 (MEDIMMUNE LIMITED, priority 2022, published 2025).
Where two headings read alike, the source gives them in different places. Starred links: 1 amine or outer side, 2 acyl side, 3 side chain; linkers in the order of their positions; H or OH if unused. Non-standard residues stand in square brackets, D forms with d. Residues, ends and D or L forms follow the SMILES beside them. Groups on a side chain read outwards from the residue. *: point of attachment. C20 diacid = O=C(O)CCCCCCCCCCCCCCCCCCC(=O)*; C18 diacid = O=C(O)CCCCCCCCCCCCCCCCC(=O)*; γGlu = O=C(O)[C@H](CCC(=O)[*:2])N[*:1]; Palmitoyl = CCCCCCCCCCCCCCCC(=O)*; αMeF = C[C@](N)(Cc1ccccc1)C(=O)O; PEG2 = NCCOCCOCCC(=O)O; AEEA = NCCOCCOCC(=O)O; Aib = CC(C)(N)C(=O)O

Columns and labels:
[1] = Mouse acute food intake study; type: in vivo; settings: male C57Bl/6 mice, s.c., dose 10 nmol/kg, cumulative food intake at 24 hr vs vehicle
Procedure: Male C57Bl/6 mice obtained from Jackson Laboratories or Charles River at 8-9 weeks of age and were housed one per cage in BioDaq (Research Diets) cages. Mice were placed on Alpha Dri bedding, standard chow diet (Envigo, 2018) and given water pouches. Mice were allowed to acclimate for 1-2 weeks. Body weight was measured to ensure appropriate acclimation. After acclimation, mice were sham dosed a minimum of 2 times prior to initiation of food intake study. On study day, mice were placed in clean cage bottoms, weighed, and fasted for 6-8 hours. Mice were sorted into groups based on average 24-hour food intake data and body weight. 1-2 hours prior to lights out, mice were dosed subcutaneously with one vehicle or test peptide dissolved in an appropriate vehicle at 5 mL/kg. Mice were left undisturbed and allowed access to food and water for 48 hours. Automated food intake was monitored in the BioDaq system was monitored during this time. Discrete food intake data was exported into MS Excel from which cumulative food intake data was generated and analyzed.

[2] = target: human GLP-1 receptor (hGLP-1R) (Homo sapiens, UniProt P43220); test: cAMP production (HTRF) in CHO cells expressing hGLP-1R; type: cell-based; parameters: expressed in transfected cells; settings: for EC50: geometric mean, read-out: hGLP-1R EC50; for % Relative Potency Ratio: % GLP-1R activity relative to GLP-1 / % GlucR activity relative to glucagon
In short: (§1)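 Read-out: HTRF cAMP (anti-cAMP cryptate donor, cAMP-d2 acceptor in conjugate/lysis buffer), converted to % Delta F and fitted by 4-parameter logistic for EC50. Cell densities were 1×10^5 cells/mL (hGLP-1R) or 2×10^5 cells/mL (hGCGR). Stimulation lasted 30 min at room temperature.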

[3] = target: human glucagon receptor (hGCGR) (Homo sapiens, UniProt P47871); test: cAMP production (HTRF) in CHO cells expressing hGCGR; type: cell-based; parameters: expressed in transfected cells; settings: geometric mean, read-out: hGluc-R EC50
In short: as §1

[4] = Table 7, peptides modified at position 20, cAMP in CHO hGLP-1R cells
[5] = Table 7, peptides modified at position 20, cAMP in CHO hGCGR cells

Chain of human GLP-1 receptor (hGLP-1R) (P43220 24-463): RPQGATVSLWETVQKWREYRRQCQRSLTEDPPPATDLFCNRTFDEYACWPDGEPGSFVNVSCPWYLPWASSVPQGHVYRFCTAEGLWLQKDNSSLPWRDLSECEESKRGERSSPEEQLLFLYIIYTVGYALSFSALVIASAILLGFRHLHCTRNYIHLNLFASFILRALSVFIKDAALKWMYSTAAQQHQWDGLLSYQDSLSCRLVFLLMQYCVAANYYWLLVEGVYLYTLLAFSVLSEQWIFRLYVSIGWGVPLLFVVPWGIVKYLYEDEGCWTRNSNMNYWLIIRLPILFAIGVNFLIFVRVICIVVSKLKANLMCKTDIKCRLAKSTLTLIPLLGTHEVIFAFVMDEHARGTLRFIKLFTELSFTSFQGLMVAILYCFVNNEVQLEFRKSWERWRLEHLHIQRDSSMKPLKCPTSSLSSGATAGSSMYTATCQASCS
Chain of human glucagon receptor (hGCGR) (P47871 26-477): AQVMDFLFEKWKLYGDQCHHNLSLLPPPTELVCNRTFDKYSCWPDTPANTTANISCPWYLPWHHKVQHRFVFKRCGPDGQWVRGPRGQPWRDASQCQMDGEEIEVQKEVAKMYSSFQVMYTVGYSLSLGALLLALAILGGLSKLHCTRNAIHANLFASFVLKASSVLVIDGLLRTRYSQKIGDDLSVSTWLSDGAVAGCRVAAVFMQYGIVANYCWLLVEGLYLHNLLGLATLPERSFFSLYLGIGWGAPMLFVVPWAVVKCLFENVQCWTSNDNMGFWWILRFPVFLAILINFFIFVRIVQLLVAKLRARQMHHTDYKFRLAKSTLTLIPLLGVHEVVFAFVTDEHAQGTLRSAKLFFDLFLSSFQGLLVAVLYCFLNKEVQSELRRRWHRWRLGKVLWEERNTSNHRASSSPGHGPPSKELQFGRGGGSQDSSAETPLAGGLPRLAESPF

CC[C@H](C)[C@H](NC(=O)[C@H](CO)NC(=O)[C@H](CCC(N)=O)NC(=O)[C@@H](NC(=O)[C@H](Cc1ccccc1)NC(=O)[C@H](CC(=O)O)NC(=O)[C@H](CCCCNC(=O)COCCOCCNC(=O)COCCOCCNC(=O)CC[C@H](NC(=O)CCCCCCCCCCCCCCCCC(=O)O)C(=O)O)NC(=O)[C@H](C)NC(=O)C(C)(C)NC(=O)[C@H](CCCNC(=N)N)NC(=O)[C@H](CO)NC(=O)[C@H](CC(=O)O)NC(=O)[C@H](CC(C)C)NC(=O)[C@](C)(Cc1ccccc1)NC(=O)[C@H](CCCCN)NC(=O)[C@H](CO)NC(=O)[C@@H](NC(=O)[C@H](CC(=O)O)NC(=O)[C@H](CO)NC(=O)[C@@H](NC(=O)[C@](C)(Cc1ccccc1)NC(=O)[C@H](CO)NC(=O)CNC(=O)[C@H](Cc1c[nH]cn1)NC(=O)C(C)(C)NC(=O)[C@@H](N)Cc1c[nH]cn1)[C@@H](C)O)C(C)C)C(C)C)C(=O)N[C@@H](C)C(=O)N[C@@H](CC(N)=O)C(=O)N[C@H](C(N)=O)[C@@H](C)O [Peptide 223] (H-H[Aib]HGS[αMeF]TSDVSK[αMeF]LDSR[Aib]AK([AEEA-AEEA-γGlu-C18 diacid])DFVQSIANT-NH2)
24 hr % Vehicle Food Intake [1]: 63.6%
EC50 [2, 4]: 0.0488 nM
% Relative Potency Ratio ([2]; Table 7): 4.2
EC50 [3, 5]: 0.104 nM

CC[C@H](C)[C@H](NC(=O)C(C)(C)NC(=O)[C@H](CCC(N)=O)NC(=O)[C@@H](NC(=O)[C@](C)(Cc1ccccc1)NC(=O)[C@H](CC(=O)O)NC(=O)[C@H](CCCCNC(=O)COCCOCCNC(=O)COCCOCCNC(=O)CC[C@H](NC(=O)CCCCCCCCCCCCCCCCC(=O)O)C(=O)O)NC(=O)[C@H](C)NC(=O)[C@H](C)NC(=O)[C@H](CCCNC(=N)N)NC(=O)[C@H](CO)NC(=O)[C@H](CC(=O)O)NC(=O)[C@H](CC(C)C)NC(=O)[C@](C)(Cc1ccccc1)NC(=O)[C@H](CCCCN)NC(=O)[C@H](CO)NC(=O)[C@@H](NC(=O)[C@H](CC(=O)O)NC(=O)[C@H](CO)NC(=O)[C@@H](NC(=O)[C@](C)(Cc1ccccc1)NC(=O)[C@H](CO)NC(=O)CNC(=O)[C@H](Cc1c[nH]cn1)NC(=O)C(C)(C)NC(=O)[C@@H](N)Cc1c[nH]cn1)[C@@H](C)O)C(C)C)C(C)C)C(=O)N[C@@H](C)C(=O)N[C@@H](CCC(=O)O)C(=O)N[C@H](C(N)=O)[C@@H](C)O [Peptide 300] (H-H[Aib]HGS[αMeF]TSDVSK[αMeF]LDSRAAK([AEEA-AEEA-γGlu-C18 diacid])D[αMeF]VQ[Aib]IAET-NH2)
24 hr % Vehicle Food Intake [1]: 45.2%
EC50 [2, 4]: 0.0197 nM
% Relative Potency Ratio ([2]; Table 7): 1.8
EC50 [3, 5]: 0.0184 nM

CCCCCCCCCCCCCCCC(=O)N[C@@H](CCC(=O)N[C@@H](CCC(=O)NCCOCCOCCC(=O)NCCOCCOCCC(=O)NCCCC[C@H](NC(=O)[C@H](CO)NC(=O)[C@H](CC(=O)O)NC(=O)[C@H](CC(C)C)NC(=O)[C@](C)(Cc1ccccc1)NC(=O)[C@H](CCCCN)NC(=O)[C@H](CO)NC(=O)[C@@H](NC(=O)[C@H](CC(=O)O)NC(=O)[C@H](CO)NC(=O)[C@@H](NC(=O)[C@](C)(Cc1ccccc1)NC(=O)[C@H](CO)NC(=O)CNC(=O)[C@H](CCC(N)=O)NC(=O)C(C)(C)NC(=O)[C@@H](N)Cc1c[nH]cn1)[C@@H](C)O)C(C)C)C(=O)N[C@@H](C)C(=O)N[C@@H](C)C(=O)N[C@@H](CCC(N)=O)C(=O)N[C@@H](CC(=O)O)C(=O)N[C@@](C)(Cc1ccccc1)C(=O)N[C@H](C(=O)N[C@@H](CCC(N)=O)C(=O)NC(C)(C)C(=O)N[C@H](C(=O)N[C@@H](C)C(=O)N[C@@H](CC(N)=O)C(N)=O)[C@@H](C)CC)C(C)C)C(=O)O)C(=O)O [Peptide 73] (H-H[Aib]QGS[αMeF]TSDVSK[αMeF]LDSK([PEG2-PEG2-γGlu-γGlu-Palmitoyl])AAQD[αMeF]VQ[Aib]IAN-NH2; N-terminus assumed)
24 hr % Vehicle Food Intake [1]: 63.4%
% Relative Potency Ratio ([2]; Table 6): 157.9
EC50 ([3]; Table 6, peptides modified at position 17, cAMP in CHO hGCGR cells): 0.022 nM

CC[C@H](C)[C@H](NC(=O)[C@H](Cc1c[nH]c2ccccc12)NC(=O)[C@H](CCC(N)=O)NC(=O)[C@@H](NC(=O)[C@](C)(Cc1ccccc1)NC(=O)[C@H](CC(=O)O)NC(=O)[C@H](CCCCNC(=O)COCCOCCNC(=O)COCCOCCNC(=O)CC[C@H](NC(=O)CC[C@H](NC(=O)CCCCCCCCCCCCCCCCC(=O)O)C(=O)O)C(=O)O)NC(=O)[C@H](C)NC(=O)[C@H](C)NC(=O)[C@H](CCCNC(=N)N)NC(=O)[C@H](CO)NC(=O)[C@H](CC(=O)O)NC(=O)[C@H](CC(C)C)NC(=O)[C@](C)(Cc1ccccc1)NC(=O)[C@H](CCCCN)NC(=O)[C@H](CO)NC(=O)[C@@H](NC(=O)[C@H](CC(=O)O)NC(=O)[C@H](CO)NC(=O)[C@@H](NC(=O)[C@](C)(Cc1ccccc1)NC(=O)[C@H](CO)NC(=O)CNC(=O)[C@H](Cc1c[nH]cn1)NC(=O)C(C)(C)NC(=O)[C@@H](N)Cc1c[nH]cn1)[C@@H](C)O)C(C)C)C(C)C)C(=O)N[C@@H](C)C(=O)N[C@@H](CC(N)=O)C(=O)N[C@H](C(N)=O)[C@@H](C)O [Peptide 247] (H-H[Aib]HGS[αMeF]TSDVSK[αMeF]LDSRAAK([AEEA-AEEA-γGlu-γGlu-C18 diacid])D[αMeF]VQWIANT-NH2; N-terminus assumed)
24 hr % Vehicle Food Intake [1]: 66.9%
EC50 [2, 4]: 0.0849 nM
% Relative Potency Ratio ([2]; Table 7): 1.2
EC50 [3, 5]: 0.0511 nM

CC[C@H](C)[C@H](NC(=O)C(C)(C)NC(=O)[C@H](CCCCNC(=O)COCCOCCNC(=O)COCCOCCNC(=O)CC[C@H](NC(=O)CC[C@H](NC(=O)CCCCCCCCCCCCCCCCCCC(=O)O)C(=O)O)C(=O)O)NC(=O)[C@@H](NC(=O)[C@](C)(Cc1ccccc1)NC(=O)[C@H](CC(=O)O)NC(=O)[C@H](CCC(N)=O)NC(=O)[C@H](C)NC(=O)[C@H](C)NC(=O)[C@H](CCCNC(=N)N)NC(=O)[C@H](CO)NC(=O)[C@H](CC(=O)O)NC(=O)[C@H](CC(C)C)NC(=O)[C@](C)(Cc1ccccc1)NC(=O)[C@H](CCCCN)NC(=O)[C@H](CO)NC(=O)[C@@H](NC(=O)[C@H](CC(=O)O)NC(=O)[C@H](CO)NC(=O)[C@@H](NC(=O)[C@](C)(Cc1ccccc1)NC(=O)[C@H](CO)NC(=O)CNC(=O)[C@H](Cc1c[nH]cn1)NC(=O)C(C)(C)NC(=O)[C@@H](N)Cc1c[nH]cn1)[C@@H](C)O)C(C)C)C(C)C)C(=O)N[C@@H](C)C(=O)N[C@@H](CC(N)=O)C(=O)N[C@H](C(N)=O)[C@@H](C)O [Peptide 375] (H-H[Aib]HGS[αMeF]TSDVSK[αMeF]LDSRAAQD[αMeF]VK([AEEA-AEEA-γGlu-γGlu-C20 diacid])[Aib]IANT-NH2; N-terminus assumed)
24 hr % Vehicle Food Intake [1]: 66.0%
% Relative Potency Ratio [2]: 1.4
EC50 ([2]; cAMP, CHO cells, 0.1% BSA): 0.225 nM
EC50 ([3]; cAMP, CHO cells, 0.1% BSA): 0.155 nM

CC[C@H](C)[C@H](NC(=O)[C@H](Cc1c[nH]c2ccccc12)NC(=O)[C@H](CCCCNC(=O)COCCOCCNC(=O)COCCOCCNC(=O)CC[C@H](NC(=O)CC[C@H](NC(=O)CCCCCCCCCCCCCCCCC(=O)O)C(=O)O)C(=O)O)NC(=O)[C@@H](NC(=O)[C@H](Cc1ccccc1)NC(=O)[C@H](CC(=O)O)NC(=O)[C@H](CCC(N)=O)NC(=O)[C@H](C)NC(=O)[C@H](C)NC(=O)[C@H](CCCNC(=N)N)NC(=O)[C@H](CO)NC(=O)[C@H](CC(=O)O)NC(=O)[C@H](CC(C)C)NC(=O)[C@](C)(Cc1ccccc1)NC(=O)[C@H](CCCCN)NC(=O)[C@H](CO)NC(=O)[C@@H](NC(=O)[C@H](CC(=O)O)NC(=O)[C@H](CO)NC(=O)[C@@H](NC(=O)[C@](C)(Cc1ccccc1)NC(=O)[C@H](CO)NC(=O)CNC(=O)[C@H](Cc1c[nH]cn1)NC(=O)C(C)(C)NC(=O)[C@@H](N)Cc1c[nH]cn1)[C@@H](C)O)C(C)C)C(C)C)C(=O)N[C@@H](C)C(=O)N[C@@H](CC(N)=O)C(=O)N[C@H](C(=O)NCC(=O)NCC(N)=O)[C@@H](C)O [Peptide 364] (H-H[Aib]HGS[αMeF]TSDVSK[αMeF]LDSRAAQDFVK([AEEA-AEEA-γGlu-γGlu-C18 diacid])WIANTGG-NH2)
24 hr % Vehicle Food Intake [1]: 63.7%
% Relative Potency Ratio [2]: 2.6
EC50 ([2]; cAMP, CHO cells, 0.1% BSA): 0.0234 nM
EC50 ([3]; cAMP, CHO cells, 0.1% BSA): 0.0304 nM
